What all share (type): biochemical
The target of one assay is human α-thrombin (Homo sapiens, UniProt P00734). The experiment in a line: In vitro inhibition of purified thrombin (hydrolysis of Bz-Phe-Val-Arg-pNa). The settings on record: for inhibition at 60 µM: at 60 μM inhibitor; for IC50: purified human α-thrombin 36 nM, pH 7.5, 37° C. On the procedure: (§1) The ability of the compounds of the present invention to act as inhibitors of thrombin, factor Xa and plasmin catalytic activity was assessed by determining the concentration that inhibited enzyme activity by 50% using purified human enzymes. The concentration of added inhibitor that caused a 50% decrease in the initial rate of hydrolysis was defined as the IC50 value.
(§2) All assays are based on the ability of the test compound to inhibit the hydrolysis of a peptide p-nitroanilide substrate. In a typical experiment, appropriate substrate is prepared in DMSO, and diluted into an assay buffer consisting of 50 mM HEPES and 130 mM NaCl at a pH of 7.5. The final concentration for each of the substrates is listed below. All substrate concentrations are at least 10 fold lower than Km to insure inhibition is competitive. Test compounds are prepared as 1 mg/mL solutions in DMSO, and three additional 10-fold dilutions in DMSO are prepared. Enzyme solutions are prepared at the concentrations listed below in assay buffer.
(§3) In a typical IC50 determination, into each well of a 96 well plate is pipetted 280 μL of substrate solution, 10 μL of inhibitor solution, and the plate is allowed to thermally equilibrate at 37° C. in a Molecular Devices Plate Reader for at least 10 minutes. Reactions are initiated by the addition of a 20 μL aliquot of enzyme, and the absorbance increase at 405 nm is recorded for 15 minutes. Data corresponding to less than 10% of the total substrate hydrolysis is used in the calculations. The ratio of the velocity (rate of the change in absorbance as a function of time) for a sample containing no inhibitor is divided by the velocity of a sample containing inhibitor, and is plotted as a function of inhibitor concentration. The inverse of the slope is the concentration of inhibitor which produces a 50% decrease in activity of the enzyme. This concentration is referred to as the IC50.
Thrombin activity was assessed as the ability to hydrolyze the substrate N-benzoyl-Phe-Val-Arg-p-nitroanilide (Bz-Phe-Val-Arg-pNa), and was obtained from Sigma Chemical Company (St. Louis, Mo.). Substrate solutions were prepared at a concentration of 60 μM (60 μM<<Km =1.2 mM) in assay buffer. Final DMSO concentration was 0.3%. […] Final reagent concentrations were: [thrombin]=36 nM, [Bz-Phe-Val-Arg-pNa]=[…], [inhibitor]=60 to 0.06 μM.

Another assay has as its target human plasmin (Homo sapiens, UniProt P00747). Kind of assay: In vitro inhibition of purified plasmin (hydrolysis of Tos-Gly-Pro-Lys-pNa). The settings on record: for inhibition at 60 µM: at 60 μM inhibitor. On the procedure:
as §1, §2, §3
Plasmin activity was assessed as the ability to hydrolyze the substrate Tos-Gly-Pro-Lys-pNa, and was obtained from Sigma. Substrate solutions were prepared at a concentration of 22 μM (22 μM<<Km =240 μM) in assay buffer. Final DMSO concentration was 0.3%. Purified human plasmin was obtained from Enzyme Research Laboratories Inc, and was diluted into assay buffer to a concentration of 1.2 μM. Final reagent concentrations were: [plasmin]=15 nM, […], [inhibitor]=60 to 0.06 μM.

In a further assay the target is T1, Factor Xa (Homo sapiens, UniProt P00742).
T1 construct: purchased Enzyme Research Laboratories, Inc
T1 sequence (P00742 235-488 limits assumed): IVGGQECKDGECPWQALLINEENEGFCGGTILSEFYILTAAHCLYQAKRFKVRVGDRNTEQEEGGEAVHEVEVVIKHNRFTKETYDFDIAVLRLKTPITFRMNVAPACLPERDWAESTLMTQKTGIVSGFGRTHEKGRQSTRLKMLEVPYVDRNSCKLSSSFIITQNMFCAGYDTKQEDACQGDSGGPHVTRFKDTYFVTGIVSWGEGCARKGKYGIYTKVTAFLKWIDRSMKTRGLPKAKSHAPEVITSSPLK
T1 sequence (P00742 41-179 partner limits assumed): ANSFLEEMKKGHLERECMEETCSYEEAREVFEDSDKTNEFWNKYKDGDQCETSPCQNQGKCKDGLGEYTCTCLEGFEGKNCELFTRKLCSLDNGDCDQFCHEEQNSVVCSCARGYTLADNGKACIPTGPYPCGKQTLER
Kind of assay: In vitro inhibition of purified factor Xa (hydrolysis of Bz-Ile-Glu-Gly-Arg-pNa). To be noted: purified enzyme, 10 nM factor Xa, 26 μM substrate, pH 7.5, 37° C. Here is the method: as §1, §2, §3
Factor Xa activity was assessed as the ability to hydrolyze the substrate Bz-Ile-Glu-Gly-Arg-pNa, and was obtained from Sigma. Substrate solutions were prepared at a concentration of 26 μM (26 μM<<Km =1.3 mM) in assay buffer. Final DMSO concentration was 0.3%. Activated factor Xa was obtained from Enzyme Research Laboratories, Inc., and was diluted into assay buffer to a concentration of 1.2 μM. Final reagent concentrations were: [Factor Xa]=10 nM, [Bz-Ile-Glu-Gly-Arg-pNa]=26 μM, [inhibitor]=60to 0.06 μM.

Setting [1] is: purified human plasmin 15 nM, pH 7.5, 37° C., read-out: Plasmin Inhibition (IC50).

SMILES strings stand for the structures. Read-outs that look alike come from different tables or passages of the source.

As usually defined, the inhibition is the change of the read-out against control, counted positive when it falls. Low readings indicate a weak effect, high ones a strong effect. What is called IC50 is the midpoint of a concentration-inhibition curve.

Chain of human plasmin (P00747 581-810 limits assumed): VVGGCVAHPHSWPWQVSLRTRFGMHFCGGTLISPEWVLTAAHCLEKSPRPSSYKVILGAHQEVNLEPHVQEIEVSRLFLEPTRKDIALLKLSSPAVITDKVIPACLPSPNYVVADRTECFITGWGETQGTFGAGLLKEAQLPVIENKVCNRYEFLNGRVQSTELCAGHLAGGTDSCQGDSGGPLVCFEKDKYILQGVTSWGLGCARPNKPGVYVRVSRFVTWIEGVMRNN
Chain of human plasmin (P00747 97-580 partner limits assumed): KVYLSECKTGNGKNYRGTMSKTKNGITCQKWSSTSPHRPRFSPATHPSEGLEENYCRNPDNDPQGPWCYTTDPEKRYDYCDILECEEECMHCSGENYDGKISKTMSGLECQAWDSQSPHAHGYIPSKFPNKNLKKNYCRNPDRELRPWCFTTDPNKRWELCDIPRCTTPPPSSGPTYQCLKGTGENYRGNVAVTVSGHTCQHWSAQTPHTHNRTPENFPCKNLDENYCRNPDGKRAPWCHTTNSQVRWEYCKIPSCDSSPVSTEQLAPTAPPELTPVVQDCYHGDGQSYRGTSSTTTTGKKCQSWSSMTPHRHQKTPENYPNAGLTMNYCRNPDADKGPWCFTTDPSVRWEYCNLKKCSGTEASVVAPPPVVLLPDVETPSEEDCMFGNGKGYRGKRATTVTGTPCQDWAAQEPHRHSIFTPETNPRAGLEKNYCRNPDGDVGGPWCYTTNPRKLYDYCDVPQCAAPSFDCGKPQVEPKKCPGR

With `CN(C)c1ccc(CNC(=O)c2cccc(NS(=O)(=O)c3cccc(N)c3)c2)cc1` [Compound 31, 3-[(3'-Aminophenylsulfonyl)amino]-N-[4'-[(N', N'-dimethylamino)phenyl]methyl]benzamide], 60 µM produced 0% inhibition on human α-thrombin. For the same compound, the half-inhibitory concentration (IC50) on human plasmin (setting [1]) amounted to 15.2 µM; on Factor Xa, 16.5 µM.
Turning to `O=C(NCCc1ccccn1)c1cccc(NS(=O)(=O)c2ccc3ccccc3c2)c1` [Compound 27], the IC50 turned out to be 294 µM on human α-thrombin and 2 µM against Factor Xa. The same compound registered an inhibition at 60 µM at human plasmin of 0%.
Turning to `COc1cc(C(O)CNC(=O)c2cccc(NS(=O)(=O)c3ccccc3)c2)ccc1O` (stereo not drawn) [Compound 22, 3-[(Phenylsulfonyl)amino]-N-[2-hydroxy-2-(4'-hydroxy-3'-methoxyphenyl)ethyl]benzamide], the values for the half-inhibitory concentration (IC50) against human α-thrombin and against Factor Xa were 38.3 µM and 20.8 µM, respectively. For the same compound, testing at 60 µM on human plasmin gave an inhibition of 0%.
For the compound `COc1cc(CNC(=O)c2cccc(NS(=O)(=O)c3ccccc3)c2)ccc1O` [Compound 20, 3-[(Phenylsulfonyl)amino]-N-[(4-hydroxy-3-methoxyphenyl)methyl]benzamide], 60 µM produced 0% inhibition on human α-thrombin. For the same compound, the IC50 amounted to 5.8 µM at human plasmin (setting [1]) and 19.2 µM on Factor Xa.
Regarding `O=C(NCC(O)c1cccc(O)c1)c1cccc(NS(=O)(=O)c2ccc3ccccc3c2)c1` (stereo not drawn) [Compound 14, 3-[(2-Naphthalenylsulfonyl)amino]-N-[2-hydroxy-2-(3'-hydroxyphenyl)ethyl]benzamide], the values for the IC50 at human α-thrombin, against human plasmin and on Factor Xa were 87 µM, 86.1 µM and 11.4 µM, respectively.
For `CN(C)c1ccc(CNC(=O)c2cccc(NS(=O)(=O)c3ccc4ccccc4c3)c2)cc1` [Compound 16], the values for the IC50 against human α-thrombin and at Factor Xa were 52.8 µM and 3.2 µM, respectively. This compound also had an inhibition at 60 µM against human plasmin of 0%.
For the compound `NCCCCCNC(=O)c1cccc(NS(=O)(=O)c2ccc3ccccc3c2)c1` [Compound 32, 3-[(2-Naphthalenylsulfonyl)amino]-N-(5-aminopentyl)benzamide], the inhibition at 60 µM at human α-thrombin and on human plasmin was 0% in each case. On Factor Xa, this compound displayed an IC50 of 7.6 µM.
